Source: PMC11956012, “Optimization of Cyclophilin B-Targeted Tri-vector Inhibitors for Novel MASH Treatments” (Journal of Medicinal Chemistry, 2025)

Assays:
[1] = biological target: Cyp D (Homo sapiens, UniProt P30405)
Protocol: (§1) The cyclophilin binding properties of the compounds were assessed by Surface Plasmon Resonance (SPR) against Cyp A, B and D isoforms (Table 1, representative sensorgrams are shown in Figure 3A).[35]
Surface Plasmon Resonance (SPR)
(§2) SPR measurements were performed on a Biacore T200 instrument (Cytiva). Ni2+ -
(§3) nitrilotriacetic acid (NTA) sensor chips, 1-ethyl-3-(3-diaminopropyl) carbodiimide
(§4) hydrochloride (EDC) and N hydroxy succinimide (NHS) were purchased from Cytiva.
(§5) Immobilization and covalent stabilization of His-Cyps Pure His-cyclophilins on the NTA
(§6) sensor chip was performed essentially as described. [Wear et al., 2017, FEBS OpenBio], using
(§7) 200 nM concentrations of each protein, in Running Buffer (PBS, pH7.4; 0.05 % surfactant P20,
(§8) 2% v/v ethanol; 50 µM EDTA), at 30 µl min-1 with 60 second contact times on the activated
(§9) NTA surfaces. This gave signals of 1,921 RU for His-CypA, 1932 RU for His-CypB and 1,397
(§10) RU for His-CypD. Specific surface protein activity was assayed by passing saturating amounts
(§11) activity were obtained for His-CypA, -B and –D, respectively.
Kinetic titration experiments
(§12) Single cycle kinetic titration binding experiments were performed in triplicate at 25 °C. 3-fold
(§13) injected over the sensor surface, at 100 µl min-1 with a 90 s contact time and a 90 s dissociation
(§14) time. The sensor surface was regenerated between experiments by dissociating any formed
(§15) complex in running buffer for at least 1,200 seconds. The apparent on-rate (k+) and off-rate (k-
(§16) ) constants and the equilibrium dissociation constant (Kd) were calculated from reference

[2] = biological target: Cyp A (Homo sapiens, UniProt P62937)
Protocol: as §1
Surface Plasmon Resonance (SPR)
as §2, §3, §4, §5, §6, §7, §8, §9, §10, §11
Kinetic titration experiments
as §12, §13, §14, §15, §16

[3] = biological target: Cyp B (Homo sapiens, UniProt P23284); assay: biochemical
Chain of Cyp B (P23284 32-216 limits assumed): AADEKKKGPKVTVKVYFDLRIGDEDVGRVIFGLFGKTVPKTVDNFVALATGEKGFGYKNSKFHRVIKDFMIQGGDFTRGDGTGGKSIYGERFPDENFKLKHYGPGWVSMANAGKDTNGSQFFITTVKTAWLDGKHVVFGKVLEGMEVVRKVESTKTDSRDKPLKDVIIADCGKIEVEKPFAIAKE
Protocol: as §1
Surface Plasmon Resonance (SPR)
as §2, §3, §4, §5, §6, §7, §8, §9, §10, §11
Kinetic titration experiments
as §12, §13, §14, §15, §16

Chain of Cyp A (P62937 whole entry): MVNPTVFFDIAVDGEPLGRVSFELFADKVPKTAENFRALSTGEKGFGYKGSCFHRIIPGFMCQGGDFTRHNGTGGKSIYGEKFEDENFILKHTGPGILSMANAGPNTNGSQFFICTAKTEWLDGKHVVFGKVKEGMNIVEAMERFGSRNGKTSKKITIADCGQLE
Chain of Cyp D (P30405 42-207): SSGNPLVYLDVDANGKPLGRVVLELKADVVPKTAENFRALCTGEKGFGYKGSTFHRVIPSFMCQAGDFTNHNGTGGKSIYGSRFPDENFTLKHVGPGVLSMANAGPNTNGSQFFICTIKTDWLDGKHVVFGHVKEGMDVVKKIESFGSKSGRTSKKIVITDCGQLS

Row | SMILES | Kd [1] [nM] | Kd [2] [µM] | Kd [3] [nM]
1 | CSc1ccccc1[C@H]1CCCN1C(=O)CNC(=O)N(Cc1cc(F)c(N)c(F)c1)Cc1nnn(C)n1 [Compound 5, 1-[(4-Amino-3,5-difluoro-phenyl)methyl]-1-[(2-methyltetrazol-5-yl)methyl]-3-[2-oxo-2-[(2R)-2-(2-methylsulfanylphenyl)pyrrolidin-1-yl]ethyl]urea] | 1010 ± 120 | 1.16 ± 0.2 | 200 ± 40
2 | CSc1ccccc1[C@H]1CCCN1C(=O)CNC(=O)N(Cc1cc(F)c(N)c(F)c1)Cc1cn(C)nn1 [Compound 6, 1-[(4-Amino-3,5-difluoro-phenyl)methyl]-1-[(1-methyltriazol-4-yl)methyl]-3-[2-oxo-2-[(2R)-2-(2-methylsulfanylphenyl)pyrrolidin-1-yl]ethyl]urea] | 2970 ± 800 | 4.6 ± 2.4 | 630 ± 100
3 | C#CCN(Cc1cc(F)c(N)c(F)c1)C(=O)NCC(=O)N1CCC[C@@H]1c1ccccc1SC [Compound 7, 1-[(4-Amino-3,5-difluoro-phenyl)methyl]-3-[2-oxo-2-[(2R)-2-(2-methylsulfanylphenyl)pyrrolidin-1-yl]ethyl]-1-prop-2-ynyl-urea] | 5850 ± 2000 | 8.75 ± 2.9 | 3740 ± 780
4 | CSc1ccccc1[C@H]1CCCN1C(=O)CNC(=O)N(Cc1cnc(N)nc1)Cc1nnc(C)s1 [Compound 13, 1-[(2-Aminopyrimidin-5-yl)methyl]-1-[(5-methyl-1,3,4-thiadiazol-2-yl)methyl]-3-[2-oxo-2-[(2R)-2-(2-methylsulfanylphenyl)pyrrolidin-1-yl]ethyl]urea] | 1200 ± 300 | 0.67 ± 0.1 | 184 ± 7
5 | CSc1ccccc1[C@H]1CCCN1C(=O)CNC(=O)N(Cc1cnc(N)c(Cl)c1)Cc1nnc(C)s1 [Compound 14, 1-[(6-Amino-5-chloro-3-pyridyl)methyl]-1-[(5-methyl-1,3,4-thiadiazol-2-yl)methyl]-3-[2-oxo-2-[(2R)-2-(2-methylsulfanylphenyl)pyrrolidin-1-yl]ethyl]urea] | 2400 ± 430 | 0.96 ± 0.13 | 92 ± 75
6 | CSc1ccccc1[C@H]1CCCN1C(=O)CN1C(=O)N(Cc2ccc(N)c(Cl)c2)CC1=NNC(C)=O [Compound 16, N-[[1-[(4-amino-3-chloro-phenyl)methyl]-2-oxo-3-[2-oxo-2-[(2R)-2-(2-methylsulfanylphenyl)pyrrolidin-1-yl]ethyl]imidazolidin-4-ylidene]amino]acetamide] | 9100 ± 900 | 7.1 ± 1.25 | 4500 ± 500
7 | CC(=O)NN=C1CN(Cc2ccc(N)c(Cl)c2)C(=O)N1CC(=O)N1CCC[C@@H]1c1ccccc1Br [Compound 17, N-[[1-[(4-amino-3-chloro-phenyl)methyl]-3-[2-[(2R)-2-(2-bromophenyl)pyrrolidin-1-yl]-2-oxo-ethyl]-2-oxo-imidazolidin-4-ylidene]amino]acetamide] | > 10000 | > 10 | > 10000
8 | CSc1ccccc1[C@H]1CCCN1C(=O)CN1C(=O)N(Cc2cnc(N)c(Cl)c2)CC1=NNC(C)=O [Compound 18, N-[[1-[(6-amino-5-chloro-3-pyridyl)methyl]-3-[2-[(2R)-2-(2-methylsulfanylphenyl) Pyrrolidin-1-yl]-2-oxo-ethyl]-2-oxo-imidazolidin-4-ylidene]amino]acetamide] | > 10000 | > 10 | > 10000
9 | CC(=O)NN=C1CN(Cc2cnc(N)c(Cl)c2)C(=O)N1CC(=O)N1CCC[C@@H]1c1ccccc1Br [Compound 19, N-[[1-[(6-amino-5-chloro-3-pyridyl)methyl]-2-oxo-3-[2-oxo-2-[(2R)-2-(2-bromophenyl) Pyrrolidin-1-yl]ethyl]imidazolidin-4-ylidene]amino]acetamide] | > 10000 | > 10 | > 10000
